Assay results reported in US11452724B2, “Methods for treating amyotrophic lateral sclerosis” (The Regents of the University of Michigan, priority 2018, dated 2022).
Read-outs that look alike come from different tables or passages of the source.

Assays:
NK92 NK cell line [1] = test: Cytokine gene expression by qPCR in IL-15 stimulated NK92 cells; assay type: cell-based; conditions: 30 ng/ml IL-15, tofacitinib treatment (Overnight IL-15) or pre-treatment (2 Hr IL-15)
Procedure: (§1) FIG. 3A-E: Tofacitinib reduces NK cell activity and cytotoxicity. (A) NK cells (NK92 cell line) were treated with tofacitinib either after 30 ng/ml of IL-15 activation overnight (ON) or before IL-15 activation (2-hours) to test its efficacy in inhibiting already activated NK cells (overnight stimulation) or preventing their activation (2-hour stimulation). (B) NK cells cultured Overnight or 2 Hrs with IL-15 were lysed and cytokine expression assessed using qPCR. IL-10, TNF-α, and IFN-γ gene expression was assessed. (C) Intracellular granzyme B and perforin were levels were assessed in NK cells in vitro using flow cytometry. […] (D) NK cell migration was assessed using a transwell assay. […] A chemoattractant (serum or CCL13) was placed on the other side of the transwell and after 3 hours the fluorescent intensity in the chemoattractant half of the well was assessed. (E) NK cytotoxicity was measured using a K562 co-culture assay. […] Cells were then stained with a viability dye and analyzed using flow cytometry. […]
To test this possibility, experiments were conducted that utilized the well-characterized NK92 NK cell line to assess tofacitinib's impact on NK cell activation and cytotoxicity in vitro. […] First, NK cells from these two conditions were collected, lysed, and cytokine expression gene expression was assessed using qPCR (FIG. 3B).

NK92 NK cell line [2] = test: Intracellular granzyme B and perforin levels in NK cells by flow cytometry; assay type: cell-based
Procedure: FIG. 3A-E: Tofacitinib reduces NK cell activity and cytotoxicity. (A) NK cells (NK92 cell line) were treated with tofacitinib either after 30 ng/ml of IL-15 activation overnight (ON) or before IL-15 activation (2-hours) to test its efficacy in inhibiting already activated NK cells (overnight stimulation) or preventing their activation (2-hour stimulation). (B) NK cells cultured Overnight or 2 Hrs with IL-15 were lysed and cytokine expression assessed using qPCR. IL-10, TNF-α, and IFN-γ gene expression was assessed. (C) Intracellular granzyme B and perforin were levels were assessed in NK cells in vitro using flow cytometry. Fluorescent intensity was plotted for unstimulated NK cells in serum free conditions (negative control; blue), serum-stimulated NK cells (positive control; red), IL-15 stimulated NK cells (30 ng/ml IL-15; orange), or tofacitinib treated NK cells (30 ng/ml IL-15+ tofacitinib; green). (D) NK cell migration was assessed using a transwell assay. NK92 cells were fluorescently labeled and placed on one side of a well separated by a porous membrane. A chemoattractant (serum or CCL13) was placed on the other side of the transwell and after 3 hours the fluorescent intensity in the chemoattractant half of the well was assessed. (E) NK cytotoxicity was measured using a K562 co-culture assay. […] Cells were then stained with a viability dye and analyzed using flow cytometry. […]

NK92 NK cells = test: NK cell migration transwell assay; assay type: cell-based; conditions: IL-15 stimulated NK92 cells, 3 hours
Procedure: as §1
(§2) Experiments were conducted to assess the impact on NK cell migration following tofacitinib treatment (FIG. 3D). […] NK cell chemoattractants (serum or CCL13) were then placed in the other half of the well and the number of NK cells which traversed the membrane were measured. […] Cells were collected, stained with a viability dye, and analyzed using flow cytometry. […]

[3] = system: NK92 NK cells co-cultured with K562 cancer cells; test: NK cytotoxicity K562 co-culture assay; assay type: cell-based; conditions: 4:1 NK:K562 ratio overnight; even following overnight IL-15 stimulation
Procedure: as §1, §2

peripheral NK cells [4] = conditions: mice; Shimaoka et al. 2017; cited from earlier work
peripheral NK cells [5] = conditions: human patients; van Vollenhoven et al. 2019, van Gurp et al. 2008; cited from earlier work
NK cells, CD4 T cells = conditions: cited from earlier work

C[C@@H]1CCN(C(=O)CC#N)C[C@@H]1N(C)c1ncnc2[nH]ccc12 [tofacitinib]
IFN-γ gene expression (NK92 NK cell line [1]): significantly reduced
IL-10 gene expression (NK92 NK cell line [1]): significantly reduced
intracellular perforin levels (NK92 NK cell line [2]; NK cells stimulated with IL-15, particularly when treated with tofacitinib prior to IL-15 stimulation): reduced
intracellular granzyme B levels (NK92 NK cell line [2]; NK cells stimulated with IL-15 overnight or for two hours, flow cytometry): modest effect
NK cell migration in response to CCL13 (NK92 NK cells; CCL13 as chemoattractant): more robust suppression
NK cell migration in response to serum (NK92 NK cells; serum as chemoattractant): modest reduction
NK cell-mediated killing (K562 survival) [3]: ameliorated
peripheral NK cells (peripheral NK cells [4]): capable of reducing
peripheral NK cells (peripheral NK cells [5]): capable of reducing
NK cell levels (NK cells, CD4 T cells; Hodge et al. 2016, van Gurp et al. 2008): reduced in a dose dependent manner
CD4 T cell levels (NK cells, CD4 T cells; van Gurp et al. 2008): maintaining
